The values below come from ChEMBL document CHEMBL1131585, “Novel orally active growth hormone secretagogues” (J Med Chem, 1998).

Where a SMILES comes first, the peptide text is derived from it. [ ]: non-standard residue; d: D form. d2Nal = N[C@H](Cc1ccc2ccccc2c1)C(=O)O; Aib = CC(C)(N)C(=O)O Bounds are passed on as bounds.

The subject of series [1] is Sus scrofa. Nature of the series: Compound was tested for efficacy against GH release upon iv administration in swine. The format is functional.
Series [2] is filed under the species Rattus norvegicus. Nature of the series: Compound was tested against the effect of D-Lys3-GHRP-6 on the release of growth hormone from pituitary cells in rat. The series is classed as functional, cell-based. The note with it: Pituitary gland cell.
Series [3] has as its system Sus scrofa. In words: Compound was tested for potency against GH release upon iv administration in swine. The format is functional.
For series [4], the species on record is Rattus norvegicus. In words: Compound was tested against the effect of L-692400 on the release of growth hormone from pituitary cells in rat. The series is classed as functional, cell-based. The note with it: Pituitary gland cell.
Series [5] has as its target Growth hormone secretagogue receptor type 1 (Rattus norvegicus) (UniProt O08725). Nature of the series: (§1) Tested for GH-releasing property using classical rat pituitary cell assay. The series is classed as functional, cell-based. The note with it: Pituitary gland cell.
Series [6] is filed under the species Rattus norvegicus. Nature of the series: Compound was tested against the effect of N-acetyl-Tyr-D-Arg(1-29)GHRH-NH2 on the release of growth hormone from pituitary cells in rat. The format is functional, cell-based. The following applies: Pituitary gland cell.
The species named for series [7] is Rattus norvegicus. Nature of the series: Compound was tested against the effect of substance P antagonist on the release of growth hormone from pituitary cells in rat. The format is functional, cell-based. The following applies: Pituitary gland cell.
For series [8], the target named is Growth hormone secretagogue receptor type 1 (Rattus norvegicus, UniProt O08725). The series is described as §1. The format is functional, cell-based, Pituitary gland cell.
Chain of Growth hormone secretagogue receptor type 1 (O08725 whole entry): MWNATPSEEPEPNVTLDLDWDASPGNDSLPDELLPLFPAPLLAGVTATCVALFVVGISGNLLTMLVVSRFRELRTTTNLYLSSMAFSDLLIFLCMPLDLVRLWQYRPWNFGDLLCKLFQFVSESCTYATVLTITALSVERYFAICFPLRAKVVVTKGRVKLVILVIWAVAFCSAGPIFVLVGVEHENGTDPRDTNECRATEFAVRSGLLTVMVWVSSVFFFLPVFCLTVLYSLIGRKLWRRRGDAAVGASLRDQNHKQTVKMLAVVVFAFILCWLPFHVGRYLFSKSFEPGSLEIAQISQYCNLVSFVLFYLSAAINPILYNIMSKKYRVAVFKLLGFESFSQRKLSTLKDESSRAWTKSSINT
Series [9] deals with Sus scrofa. Nature of the series: Tested for in vivo activity against GH release after iv administration in swine.
Series [10] can be described thus: Oral bioavailability in dog (Beagle). The format is ADME, organism-based, Canis lupus familiaris. The note with it: in vivo; for bioavailability: beagle.
Series [11] relates to Canis familiaris. In words: Compound was tested Growth Hormone(GH) release after 10 mg/kg administration (Po) in Beagle dogs. The following applies: Canis lupus familiaris. The format is functional, organism-based. Further details: dose 10 mg/kg.
Series [12] relates to Canis familiaris. In words: Compound was tested Growth Hormone(GH) release after 0.5 mg/kg administration (Po) in Beagle dogs. The series is classed as functional, organism-based. More on the design: dose 0.5 mg/kg. The note with it: Canis lupus familiaris.
In series [13] the test system is Canis familiaris. In words: Compound was tested Growth Hormone(GH) release after 2.5 mg/kg administration (Po) in Beagle dogs. The series is classed as functional, organism-based. More on the design: dose 2.5 mg/kg. The note with it: Canis lupus familiaris.
Series [14] deals with Sus scrofa. Nature of the series: Compound was tested for potency against GH release iv administration in swine. The format is functional.
A short description of series [15]: Compound was tested for maximum concentration in blood after 10 mg/kg administration (Po) in Beagle dogs; nmol/L maximum blood concentration. The note with it: dog.
A short description of series [16]: Compound was tested for maximum concentration in blood after 2.5 mg/kg administration (Po) in Beagle dogs; nmol/L maximum blood concentration. The note with it: dog.
The test system of series [17] is Sus scrofa. In words: Compound was tested for efficacy against GH release iv administration in swine. The series is classed as functional.
Series [18] in a line: Compound was tested for oral bioavailability after 10 mg/kg administration (Po) in Beagle dogs; F % Oral Bioavailability. The format is ADME, organism-based, Canis lupus familiaris. The following applies: dog, in vivo.
Series [19] in a line: Oral bioavailability in dog (Beagle) (dose 2.5 mg/kg). The series is classed as ADME, organism-based, Canis lupus familiaris. The note with it: in vivo.
Series [20] in a line: Compound was tested for oral bioavailability after 0.5 mg/kg administration (Po) in Beagle dogs; fpo % Oral Bioavailability. The format is ADME, organism-based, Canis lupus familiaris. The following applies: dog, in vivo.
A short description of series [21]: Compound was tested for maximum blood concentration after 10 mg/kg administration (Po) in Beagle dogs; nM/L maximum blood concentration. The series is classed as ADME, organism-based, Canis lupus familiaris. Further details: route oral, dose 10 mg/kg. The following applies: dog.
Series [22] in a line: Compound was tested for maximum blood concentration after 2.5 mg/kg administration (Po) in Beagle dogs; nM/L maximum blood concentration. The following applies: dog. Further details: route oral, dose 2.5 mg/kg. The format is ADME, organism-based, Canis lupus familiaris.
The nature of series [23]: Compound was tested for oral bioavailability after 10 mg/kg administration (Po) in Beagle dogs; fpo % Oral Bioavailability. The format is ADME, organism-based, Canis lupus familiaris. The note with it: dog, in vivo.
Series [24] is described as follows: Compound was tested for maximum blood concentration after 0.5 mg/kg administration (Po) in Beagle dogs; nM/L maximum blood concentration. The series is classed as ADME, organism-based, Canis lupus familiaris. More on the design: route oral, dose 0.5 mg/kg. The note with it: dog.

Chain of Growth hormone secretagogue receptor type 1 (Rattus norvegicus) (O08725 whole entry): as above

`C[C@H](NC(=O)C(Cc1c[nH]c2ccccc12)NC(=O)[C@@H](N)Cc1c[nH]cn1)C(=O)N[C@@H](Cc1c[nH]c2ccccc12)C(=O)NC(Cc1ccccc1)C(=O)N[C@@H](CCCCN)C(N)=O` (single isomer, unassigned): the Emax in series [1] came to 74 ng/mL; in series [5], 100%. The IC50 in series [2] is 8 µM; in series [4], 10 µM; in [6], > 10 µM; in series [7], 0.038 µM. In series [3], this compound registered an ED50 of 0.0039 µmol/kg.
Turning to `CNC(=O)[C@@H](Cc1ccccc1)N(C)C(=O)[C@@H](Cc1cccc2ccccc12)N(C)C(=O)/C=C/CC(C)(C)N`, in [8], the EC50 came to 0.024 µM. In addition, in [5], the Emax came out at 115%. The Cmax [GH] in series [9] was found to be 12 ng/mL.
With `CNC(=O)[C@@H](Cc1cccs1)N(C)C(=O)[C@@H](Cc1ccc2ccccc2c1)N(C)C(=O)/C=C/CC(C)(C)N`, a half-maximal effect in [8] (EC50) was put at 0.002 µM. Further, the bioavailability in series [10] came to 15%. The same compound showed an Emax in [5] of 110%. In series [9], this compound had a Cmax [GH] of 55 ng/mL.
With `CCNC(=O)[C@@H](Cc1ccccc1)N(C)C(=O)[C@@H](Cc1ccc2ccccc2c1)N(C)C(=O)/C=C/CC(C)(C)N`, the EC50 in series [8] came out at 0.013 µM. Further, in series [10], the bioavailability was 14%. The compound further gave an Emax in [5] of 105%.
Compound `C[C@@H](O)CNC(=O)[C@@H](Cc1ccccc1)N(C)C(=O)[C@@H](Cc1ccc2ccccc2c1)N(C)C(=O)/C=C/CC(C)(C)N` (stereo in doubt; 7o) [listing 1 of 2 here] showed an Emax in series [5] of 105%. This compound gave a Cmax [GH] in series [9] of 9 ng/mL.
`CNC(=O)[C@@H](Cc1ccccc1)N(C)C(=O)[C@@H](Cc1ccc2ccccc2c1)N(C)C(=O)/C=C/CC(C)(C)N` [TABIMORELIN] came in with an EC50 in [8] of 0.018 µM. The compound further came in with an Emax in [5] of 110%.
For `CN(C(=O)/C=C/CC(C)(C)N)[C@H](Cc1ccc2ccccc2c1)C(=O)N(C)[C@H](Cc1ccccc1)C(=O)NCC1CC1`, a half-maximal response in series [8] (EC50) required 0.0018 µM. The bioavailability in series [10] worked out at 24%. Further, in series [5], the Emax turned out to be 105%. In series [9], this compound returned a Cmax [GH] of 14 ng/mL.
On to `C[C@@H](O)CNC(=O)[C@@H](Cc1ccccc1)N(C)C(=O)[C@@H](Cc1ccc2ccccc2c1)N(C)C(=O)/C=C/CC(C)(C)N` (stereo in doubt; 7b) [listing 1 of 2 here], for which the Cmax [GH] was found to be 42.5 ng/mL in series [11], 1.8 ng/mL in [12], 26 ng/mL in [9] and 6.6 ng/mL in [13]. Also, the Emax in [5] came to 130%.
Regarding `CNC(=O)[C@@H](Cc1ccccc1)N(C)C(=O)[C@@H](Cc1csc2ccccc12)N(C)C(=O)/C=C/CC(C)(C)N`, the half-maximal effective concentration (EC50) in series [8] was determined as 0.035 µM. Besides, the Emax in series [5] amounted to 80%.
As to `CNC(=O)[C@@H](Cc1ccc(I)cc1)N(C)C(=O)[C@@H](Cc1ccc2ccccc2c1)N(C)C(=O)/C=C/CC(C)(C)N`, in series [8], a half-maximal effect (EC50) was put at 0.02 µM. Moreover, the bioavailability in series [10] turned out to be 26%. Further, the Emax in series [5] was 110%. Further, in [9], the Cmax [GH] worked out at 0.4 ng/mL.
On the same counts, the results for `CNC(=O)[C@@H](Cc1ccc(F)c(F)c1)N(C)C(=O)[C@@H](Cc1ccc2ccccc2c1)N(C)C(=O)/C=C/CC(C)(C)N` are 0.017 µM, 54%, 85% and 6 ng/mL.
In turn, `C[C@@H](O)CNC(=O)[C@@H](Cc1ccccc1)N(C)C(=O)[C@@H](Cc1ccc2ccccc2c1)N(C)C(=O)/C=C/CC(C)(C)N` (stereo in doubt; 7b) [listing 2 of 2 here] came in with an ED50 in series [14] of 0.031 µmol/kg. The Cmax in series [15] worked out at 2.32 µM; in [16] it was 0.26 µM. Also, the IC50 in series [2] is 8 µM; in [4], 11 µM; in [6] it was > 10 µM; in series [7], 0.14 µM. This compound also registered an EC50 in series [8] of 0.0089 µM. The compound further registered a F in series [10] of 25%. The compound further registered an Emax in series [17] of 96 ng/mL. In addition, the bioavailability worked out at 41% in [18] and 21% in series [19].
The compound `CN(C(=O)/C=C/CC(C)(C)N)[C@H](Cc1ccc2ccccc2c1)C(=O)N(C)[C@H](Cc1ccccc1)C(=O)NCC1CCCO1` (stereo partly drawn) displayed an EC50 in [8] of 0.016 µM. The bioavailability in [10] came out at 17%. In [5], the Emax turned out to be 100%. This compound displayed a Cmax [GH] in [9] of 9 ng/mL.
With `CNC(=O)[C@@H](Cc1ccc(F)cc1)N(C)C(=O)[C@@H](Cc1ccc2ccccc2c1)N(C)C(=O)/C=C/CC(C)(C)N`, in [14], the 50% effect level (ED50) was put at a dose of 0.129 µmol/kg. For the same compound, the bioavailability came out at 53% in series [20], 49% in series [10], 138% in [23] and 55% in series [19]. Also, the Cmax came out at 3.03 µM in [21], 0.247 µM in series [22] and 0.099 µM in series [24]. For the same compound, the IC50 in [2] is 9 µM; in series [4], 14 µM; in series [6], > 10 µM; in series [7], 0.049 µM. In [8], the EC50 worked out at 0.008 µM. In addition, the Cmax [GH] in [11] came out at 12 ng/mL; in series [12] it was 2.7 ng/mL; in [9], 30 ng/mL; in [13], 4.5 ng/mL. In addition, the Emax was determined as 90% in [5] and 86 ng/mL in series [17].
In turn, `CN(C(=O)/C=C/CC(C)(C)N)[C@H](Cc1cccc2ccccc12)C(=O)N(C)[C@H](Cc1ccccc1)C(=O)NCC1CCCO1` (stereo partly drawn) returned a half-maximal effective concentration (EC50) in [8] of 0.021 µM. Moreover, the Emax in series [5] was found to be 110%.
With `C[C@H](O)CNC(=O)[C@@H](Cc1ccc(F)c(F)c1)N(C)C(=O)[C@@H](Cc1ccc2ccccc2c1)N(C)C(=O)/C=C/CC(C)(C)N`, it took 0.005 µM to reach a half-maximal effect in series [8] (EC50). For the same compound, the Emax in series [5] is 100%. Further, the Cmax [GH] in series [9] is 5 ng/mL.
In series [8], `CNC(=O)[C@@H](Cc1ccccc1)N(C)C(=O)[C@@H](COCc1ccccc1)N(C)C(=O)/C=C/CC(C)(C)N` showed an EC50 of 0.005 µM. Further, the bioavailability in series [10] is 11%. The same compound had an Emax in series [5] of 125%. This compound yielded a Cmax [GH] in [9] of 0.4 ng/mL.
In the case of `C[C@@H](O)CNC(=O)[C@@H](Cc1ccccc1)N(C)C(=O)[C@@H](Cc1ccc2ccccc2c1)N(C)C(=O)/C=C/CC(C)(C)N` (stereo in doubt; 7o) [listing 2 of 2 here], the EC50 in [8] came to 0.009 µM. In addition, the F in [10] was found to be 0%.
In the case of `CNC(=O)[C@@H](Cc1ccccc1)N(C)C(=O)[C@@H](Cc1ccc(-c2ccccc2)cc1)N(C)C(=O)/C=C/CC(C)(C)N`, the EC50 in series [8] turned out to be 0.003 µM. The bioavailability in series [10] was 0%. Moreover, the Emax in series [5] came to 120%.
The compound `C[C@H](O)CNC(=O)[C@@H](Cc1cccs1)N(C)C(=O)[C@@H](Cc1ccc2ccccc2c1)N(C)C(=O)/C=C/CC(C)(C)N` came in with an EC50 in series [8] of 0.045 µM. The compound further showed an Emax in series [5] of 120%.
Take `CC(C)(N)C(=O)N[C@@H](Cc1c[nH]cn1)C(=O)N[C@H](Cc1ccc2ccccc2c1)C(=O)N[C@H](Cc1ccccc1)C(=O)N[C@@H](CCCCN)C(N)=O` [IPAMORELIN] (H-[Aib]H[d2Nal][dF]K-NH2): the 50% effect level in [14] (ED50) was put at a dose of 0.0023 µmol/kg. Moreover, the Emax in [17] is 65 ng/mL.
